Laboratory results from patent publication US9815831B2, “3,5-disubstituted-3H-imidazo[4,5-B]pyridine and 3,5-disubstituted-3H-[1,2,3]triazolo[4,5-B] pyridine compounds as modulators of c-Met protein kinases” (Rhizen Pharmaceuticals SA, priority 2012, dated 2017).
Read-outs that look alike come from different tables or passages of the source.

How the values were obtained:
MKN-45 = experiment: Inhibition of MKN-45 proliferation (MTT); type: cell-based, human; conditions: Homo sapiens, MKN-45 proliferation; for inhibition at 0.1 µM: 100 nM, read-out: MKN45 % inhibition @ 100 nM; for GI50: read-out: MKN45 GI50
Method in brief: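 High-Met human gastric adenocarcinoma MKN-45 cells plated on day 1 and exposed to compound from day 2. Viability measured by MTT dye reduction on day 5; output given as % inhibition at 100 nM and GI50.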

c-Met kinase [1] = target: T1, c-Met kinase (Homo sapiens, UniProt P08581); experiment: Inhibition of c-Met kinase phosphorylation in NCI-H441 cells (cell based ELISA); conditions: Table 5, 1 h incubation
T1 sequence (P08581 25-1390): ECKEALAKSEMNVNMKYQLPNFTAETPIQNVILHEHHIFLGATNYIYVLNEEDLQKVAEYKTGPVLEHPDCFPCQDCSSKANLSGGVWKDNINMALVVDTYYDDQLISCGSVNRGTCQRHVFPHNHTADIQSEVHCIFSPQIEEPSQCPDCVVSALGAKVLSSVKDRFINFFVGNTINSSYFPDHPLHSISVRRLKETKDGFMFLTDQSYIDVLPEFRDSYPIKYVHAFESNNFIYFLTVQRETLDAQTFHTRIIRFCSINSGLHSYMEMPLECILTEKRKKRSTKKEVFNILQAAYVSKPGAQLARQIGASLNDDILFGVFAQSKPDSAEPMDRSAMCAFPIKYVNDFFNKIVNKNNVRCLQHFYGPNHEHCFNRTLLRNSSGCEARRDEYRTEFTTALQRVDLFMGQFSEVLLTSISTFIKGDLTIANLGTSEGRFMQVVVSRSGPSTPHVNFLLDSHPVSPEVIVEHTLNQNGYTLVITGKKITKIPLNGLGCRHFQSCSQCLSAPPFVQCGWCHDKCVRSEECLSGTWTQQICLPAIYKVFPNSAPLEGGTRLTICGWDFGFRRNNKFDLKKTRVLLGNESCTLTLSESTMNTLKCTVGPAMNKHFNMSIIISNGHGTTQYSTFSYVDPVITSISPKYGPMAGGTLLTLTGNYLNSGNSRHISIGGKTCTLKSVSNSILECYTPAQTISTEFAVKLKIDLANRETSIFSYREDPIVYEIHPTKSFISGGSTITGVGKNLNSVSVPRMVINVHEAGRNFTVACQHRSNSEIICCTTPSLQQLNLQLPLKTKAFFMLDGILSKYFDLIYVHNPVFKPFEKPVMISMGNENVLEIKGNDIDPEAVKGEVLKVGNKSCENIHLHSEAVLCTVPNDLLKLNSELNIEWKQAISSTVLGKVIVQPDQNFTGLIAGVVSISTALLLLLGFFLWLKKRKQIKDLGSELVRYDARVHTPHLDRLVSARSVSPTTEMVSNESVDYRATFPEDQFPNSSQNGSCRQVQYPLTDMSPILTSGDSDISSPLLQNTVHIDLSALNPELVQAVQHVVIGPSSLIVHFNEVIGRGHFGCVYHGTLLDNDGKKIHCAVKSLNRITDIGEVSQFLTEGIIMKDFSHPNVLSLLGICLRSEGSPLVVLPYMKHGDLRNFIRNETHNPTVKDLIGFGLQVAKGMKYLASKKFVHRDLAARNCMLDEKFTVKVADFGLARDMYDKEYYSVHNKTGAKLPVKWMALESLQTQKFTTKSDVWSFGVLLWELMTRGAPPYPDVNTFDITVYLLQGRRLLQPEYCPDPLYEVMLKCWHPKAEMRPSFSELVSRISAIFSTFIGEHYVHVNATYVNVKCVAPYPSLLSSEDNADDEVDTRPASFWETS
Experimental: 5. Inhibition of c-Met Kinase Phosphorylation in NCI-H441 Cells:
Inhibition of Met phosphorylation was determined using a cell based ELISA assay according to the following schedule: • Day 1: NCI-H441 cells were plated in 96-well plates in complete growth medium. • Day 2: Inhibitors at the desired concentration were added to the plates, incubated for 1 h and lysed subsequently. Lysates were transferred to NUNC Maxisorp plates coated with anti-cMet receptor antibody. Phopho-tyrosine mAb and HRP-lined anti-mouse IgG were used as primary and secondary antibodies respectively. Optical density was measured on a microplate reader (BMG Labtech., Germany) at […]. […] Results: The results are given below in Table 5 as IC50 values.

Akt [2] = experiment: Inhibition of Akt phosphorylation in MKN-45 cells (Western blot); type: cell-based; conditions: Homo sapiens, Table 6, 0-1000 nM
Experimental: (§1) 6. Inhibition of Akt Phosphorylation in MKN-45 or NCI-H441 Cells:
(§2) Akt is a serine-threonine kinase and a downstream marker regulated by c-Met kinase via the PI3K pathway. Once phosphorylated, Akt regulates several end processes including cell survival and growth. Cells were treated with 0-1000 nM of test compounds, lysed, and the proteins separated on a 10% SDS-PAGE. Following separation, proteins were transferred onto a nitrocellulose membrane and detected by chemiluminescence after incubation with […] (primary) and rabbit anti-mouse Ab (secondary). Intensity of the bands was determined using ImageJ 1.42q (NIH, USA) and normalized to Actin (loading control).
(§3) Results: The results are provided below as IC50 values in Table 6.

Akt [3] = experiment: Inhibition of Akt phosphorylation in NCI-H441 cells (Western blot); type: cell-based; conditions: Homo sapiens, Table 6, 0-1000 nM
Experimental: as §1, §2, §3

MKN-45 cells = experiment: Induction of apoptosis in MKN-45 cells (caspase-3 activity); type: cell-based, human; conditions: percentage induction @ 3 μM; caspase-3, MKN-45 cells, 24 h; percent of maximum response
Experimental: 7. Induction of Apoptosis in MKN-45 Cells: I
Induction of Caspase 3 was measured fluorimetrically. Cells were incubated with desired concentrations of the compound for 24 h. After incubation, cells were harvested and counted. An equal number of viable cells per well (0.3×10^6 cells) were used for determination of caspase-3 activity. Increase in apoptosis manifested by an elevation in caspase-3 levels was determined using a Caspase-3 kit from Millipore. Data are expressed as a percent of the maximum response (100%).
Results: The results are provided below as percentage induction @ 3 μM in Table 7.

MDA-MB-231 cells = experiment: Inhibition of HGF-induced cell proliferation in MDA-MB-231 cells (MTT); type: cell-based; conditions: Homo sapiens, Table 8, HGF (50 ng/ml)
Experimental: 8. Inhibition of HGF-Induced Met Phosphorylation in MDA-MB-231 Cells:
MDA-MB-231 is a breast cancer cell line having a high level of c-Met expression. Activation of Met kinase in these cells occurs only after the addition of its natural ligand, Hepatocyte Growth Factor (HGF). Upon binding to the extracellular domain of the enzyme, it triggers phosphorylation of tyrosine residues and regulates several downstream events such as cell proliferation. Cell proliferation assays were carried out using the high Met expressing cell line (MDA-MB-231) according to the following schedule: • Day 1: Cells were plated in 96-well plates in complete growth medium. • Day 2: Media was replaced with starvation medium containing 0.04% BSA. • Day 3: Inhibitors at the desired concentrations and HGF (50 ng/ml) were added. • Day 5: Cell viability was determined using the 3-[4,5-dimethylthiazol-2-yl]-2,5-diphenyltetrazolium bromide (MTT) dye reduction test. […] Results: The results are provided below in Table 8 as IC50 values.

[4] = target: T2, human recombinant Met kinase (Homo sapiens, UniProt P08581); experiment: Colorimetric determination of c-Met kinase activity (HTScan Met Kinase Assay Kit); type: biochemical; conditions: read-out: c-Met Enzyme IC50
T2 construct: purchased Cell Signalling Technology, Beverly, Mass
T2 sequence (P08581 25-1390): as above

c-Met kinase [5] = target: T1, c-Met kinase; experiment: Inhibition of c-Met kinase phosphorylation in MKN-45 cells (cell based ELISA); set-up: endogenous in cells; host or cells: MKN-45; conditions: Table 4D, 1 h incubation
Experimental: MKN45 cells are a prototype of “c-Met addicted” cells having constitutively activated c-Met kinase similar to that observed in sub-sects of gastric or hepatocellular cancer patients with dysregulated c-Met kinase activity. Inhibition of Met phosphorylation was determined using a cell based ELISA assay according to the following schedule: • Day 1: MKN-45 cells were plated in 96-well plates in complete growth medium. • Day 2: Inhibitors at the desired concentration were added to the plates and incubated for 1 h and lysed subsequently. Lysates were transferred to NUNC Maxisorp plates coated with anti-cMet receptor antibody. Phopho-tyrosine mAb and HRP-lined anti-mouse IgG were used as primary and secondary antibodies respectively. Optical density was measured on a microplate reader (BMG Labtech., Germany) at […]. Inhibition of c-Met phosphorylation in this cell line indicates a therapeutic potential for test compounds in patients diagnosed with cancers caused by aberrant c-Met kinase signalling. Results: The results are provided above in Table 4D as IC50 values.

[6] = target: T2, human recombinant Met kinase; experiment: Colorimetric determination of c-Met kinase activity (HTScan Met Kinase Assay Kit); type: biochemical; conditions: 100 nM (cells without *), read-out: c-Met Enzyme % inhibition @ 100 nM
Method in brief: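 Human recombinant Met kinase was preincubated with compound for 5 min at room temperature, then reacted with ATP and biotinylated peptide for 30 min; EDTA stop. Phosphopeptide captured on streptavidin and detected with phospho-tyrosine mAb and europium anti-mouse IgG by time-resolved fluorescence (340/615 nm). Reported as % inhibition or IC50.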

SMILES | inhibition at 0.1 µM (MKN-45; MKN-45, Table 4A) | GI50 (MKN-45; MKN-45, Table 4A) | IC50 (c-Met kinase [1]) | IC50 (Akt [2]) | IC50 (Akt [3]) | % induction of caspase-3 activity (MKN-45 cells) | IC50 (MDA-MB-231 cells) | IC50 ([4]; Table 4A) | IC50 (c-Met kinase [5]) | inhibition at 0.1 µM ([6]; Table 4A) | melting point | inhibition at 0.1 µM ([6]; Table 4C) | GI50 (MKN-45; MKN-45, Table 4C) | IC50 ([4]; Table 4C)
O=C(NOCCO)c1ccc(-c2ccc3nnn(Cc4ccc5ncccc5c4)c3n2)cc1Cl [Example 6, 2-chloro-N-(2-hydroxyethoxy)-4-(3-(quinolin-6-ylmethyl)-3H-[1,2,3]triazolo[4,5-b]pyridin-5-yl)benzamide] | 75 to 100% | 25 to 50 nM | ≤ 10 nM | 10 to 25 nM | ≤ 10 nM | B (B is <75 and ≧50) | < 10 nM | 25 to 50 nM | 25 to 50 nM | – | – | – | – | –
O=C(NOCCO)c1ccc(-c2ccc3nnn(Cc4cc5cccnc5cc4F)c3n2)cc1Cl [Example 7, 2-chloro-4-(3-((7-fluoroquinolin-6-yl)methyl)-3H-[1,2,3]triazolo[4,5-b]pyridin-5-yl)-N-(2-hydroxyethoxy)benzamide] | 75 to 100% | 25 to 50 nM | ≤ 10 nM | ≤ 10 nM | ≤ 10 nM | A (A is ≧75) | – | 25 to 50 nM | ≤ 10 nM | 75 to 100% | – | – | – | –
O=C(NOCCO)c1c(F)cc(-c2ccc3nnn(Cc4ccc5ncccc5c4)c3n2)cc1F [Example 8, 2,6-difluoro-N-(2-hydroxyethoxy)-4-(3-(quinolin-6-ylmethyl)-3H-[1,2,3]triazolo[4,5-b]pyridin-5-yl)benzamide] | 25 to 50% | 50 to 100 nM | 25 to 50 nM | 50 to 250 nM | ≤ 10 nM | C (C is <50 and ≧25) | – | 25 to 50 nM | 50 to 500 nM | 75 to 100% | – | – | – | –
O=C(NOCCO)c1c(F)cc(-c2ccc3nnn(Cc4cc5cccnc5cc4F)c3n2)cc1F [Example 9, 2,6-difluoro-4-(3-((7-fluoroquinolin-6-yl)methyl)-3H-[1,2,3]triazolo[4,5-b]pyridin-5-yl)-N-(2-hydroxyethoxy)benzamide] | 75 to 100% | 50 to 100 nM | 10 to 25 nM | 50 to 250 nM | 10 to 25 nM | A (A is ≧75) | – | 25 to 50 nM | 25 to 50 nM | 75 to 100% | – | – | – | –
O=C(NOCCO)c1c(F)cc(-c2ccc3nnn(Cc4ccc5ncsc5c4)c3n2)cc1F [Example 19, 4-(3-(benzo[d]thiazol-6-ylmethyl)-3H-[1,2,3]triazolo[4,5-b]pyridin-5-yl)-2,6-difluoro-N-(2-hydroxyethoxy)benzamide] | 25 to 50% | 50 to 100 nM | – | – | – | – | – | 25 to 50 nM | – | 75 to 100% | 202 to 205 °C | – | – | –
O=C(NOCCO)c1ccc(-c2ccc3nnn(Cc4ccc5ncsc5c4)c3n2)cc1F [Example 20, 4-(3-(benzo[d]thiazol-6-ylmethyl)-3H-[1,2,3]triazolo[4,5-b]pyridin-5-yl)-2-fluoro-N-(2-hydroxyethoxy)benzamide] | 75 to 100% | 50 to 100 nM | – | – | – | – | – | 25 to 50 nM | – | 75 to 100% | 164 to 166 °C | – | – | –
Cc1ccc2cc(Cn3nnc4ccc(-c5cc(F)c(C(=O)NOCCO)c(F)c5)nc43)ccc2n1 [Example 21, 2,6-difluoro-N-(2-hydroxyethoxy)-4-(3-((2-methylquinolin-6-yl)methyl)-3H-[1,2,3]triazolo[4,5-b]pyridin-5-yl) benzamide] | < 25% | – | – | – | – | – | – | 25 to 50 nM | – | 75 to 100% | 208 to 210 °C | – | – | –
C[C@H](O)CONC(=O)c1ccc(-c2ccc3nnn(Cc4ccc5ncccc5c4)c3n2)cc1Cl [Example 31, (S)-2-chloro-N-(2-hydroxypropoxy)-4-(3-(quinolin-6-ylmethyl)-3H-[1,2,3]triazolo[4,5-b]pyridin-5-yl) benzamide] | 50 to 75% | 25 to 50 nM | – | – | – | – | – | – | ≤ 10 nM | 50 to 75% | – | – | – | –
C[C@@H](O)CONC(=O)c1ccc(-c2ccc3nnn(Cc4ccc5ncccc5c4)c3n2)cc1Cl [Example 32, (R)-2-chloro-N-(2-hydroxypropoxy)-4-(3-(quinolin-6-ylmethyl)-3H-[1,2,3]triazolo[4,5-b]pyridin-5-yl) benzamide] | 75 to 100% | 25 to 50 nM | – | – | – | – | – | 25 to 50 nM | ≤ 10 nM | 75 to 100% | – | – | – | –
Cc1cc(-c2ccc3nnn(Cc4ccc5ncccc5c4)c3n2)ccc1C(=O)NOCC(C)(C)O [Example 33, N-(2-hydroxy-2-methylpropoxy)-2-methyl-4-(3-(quinolin-6-ylmethyl)-3H-[1,2,3]triazolo[4,5-b]pyridin-5-yl)benzamide] | – | – | ≤ 10 nM | 25 to 50 nM | ≤ 10 nM | A (A is ≧75) | 10 to 50 nM | – | 10 to 25 nM | 75 to 100% | – | – | – | –
NC(=O)c1ccc(-c2ccc3ncn(Cc4ccc5ncccc5c4)c3n2)cc1C(F)(F)F [Example 1024, 4-(3-Quinolin-6-ylmethyl-3H-imidazo[4,5-b]pyridin-5-yl)-2-trifluoromethyl-benzamide] | – | – | – | – | – | – | – | – | – | – | 243 to 245 °C | 75 to 100% | 100 to 250 nM | < 25 nM
